Measured values from patent publication US20220054494A1, “METHODS FOR TREATING BLADDER AND URETHRA DYSFUNCTION AND DISEASE” (University of Pittsburgh - Of the Commonwealth System of …, priority 2019, published 2022).
“Also recorded” adds a separate entry of the source.

Experiments:
[1] = test system: deoxycorticosterone/salt-induced hypertension; conditions: chronic oral treatment of rats; Jackson et al. 2016; cited from earlier work
[2] = Jackson et al., J Pharmacol Exp Ther 2016; cited from earlier work
[3] = test system: aged rats; assay: Voiding analysis in metabolic cages, aged rats; format: in vivo, rat; conditions: aged rats; intravesical 5 μM forodesine plus 10 μM DEA-NONOate, 3 weeks of treatment; vs aged control rats
Protocol: Experimental design: Young (3 months of age) and aged (25 to 30 months of age) Fisher 344 rats were used in these experiments. Some of the aged Fisher 344 rats were treated with 8-AG (5 mg kg/day via drinking water) for 1 month.
Voiding analysis: Rats were placed in metabolic cages for 24 hr (once per week for the duration of the study). Voided urine was collected in cups attached to force displacement transducers (GRASS TECHNOLOGIES®, Warwick, R.I.) connected to a computer running WINDAQ™ data acquisition software (DATAQ™ Instruments Inc., Akron, Ohio). Data were averaged for 24 h, and voiding frequency, total voided volume, and volume per void were analyzed. Voiding frequency was calculated as the number of voiding events per hour during 24 h, and volume per void, which defines bladder capacity, was calculated as an average of the voids occurring during these periods.
Animals: Male and female Fisher 344 rats were employed (Charles River; Wilmington, Mass. and the NIA rodent colony). Some rats were young (3 months of age), some were aged (25-30 months of age), and others were aged and treated with oral 8-AG (5 mg/kg/day; 6 weeks). Under isoflurane anesthesia and using an aseptic technique, an incision was made into the lower abdomen and in the scapular area. Sterile PE50 tubing was threaded subcutaneously from the lower abdomen to the scapular area and connected to a one-channel vascular access button (Intech Laboratories, Plymouth Meeting, Pa.). In the abdomen, the tubing was inserted into the bladder and secured with a small purse-string suture. The incisions were closed, and the animals were allowed to recover for 7-10 days before further experimentation. Animals were divided into three groups. A control group of aged rats received daily infusions with 10 μM DEA-NONOate (SIGMA-ALDRICH®, St. Louis, Mo.) in sterile 0.9% saline. A second group received 100 μM 8-AG plus 10 μM DEA-NONOate in 0.9% saline, and a third group received 5 μM forodesine (SIGMA-ALDRICH®) plus 10 μM DEA-NONOate in 0.9% saline. Bladders were instilled via a catheter tether kit (Instech Laboratories) connected to a syringe pump for continuous infusion (rate 200 μl/min; 30 minutes/daily) for 3-6 weeks. The Institutional Animal Care and Use Committee approved all procedures. The investigation conforms to the Guide for the Care and Use of Laboratory Animals published by the US National Institutes of Health (NIH Publication No. 85-23, revised 1996).
Protocol 1: Young, aged, and 8-AG-treated aged rats were placed in metabolism cages for 24 hr once per week. The light cycle was from 7:00 AM to 7:00 PM, and food and water were provided ad libitum. Voided urine was collected in cups attached to force displacement transducers (GRASS TECHNOLOGIES®, Warwick, R.I.) that were connected to a computer running Windaq data acquisition software (DATAQ® Instruments I2nc., Akron, Ohio). Data were averaged for 24 h and analyzed for 12-h periods during the day (7:00 AM-7:00 PM) and night (7:00 PM-7:00 AM). Voiding frequency, total voided volume, and volume per void were analyzed. Voiding frequency was calculated as the number of voiding events per hour during 24 h and during the 12-h day and 12-h night periods. Volume per void, which defines bladder capacity, was calculated as an average of the voids occurring during these periods.
Voiding Analysis: Young, aged, and 8-AG-treated aged rats were placed in metabolic cages (24 hr; once per week) for the duration of the study. The light cycle was from 7:00 AM to 7:00 PM, and food and water were provided ad libitum. Voided urine was collected in cups attached to force displacement transducers (Grass Technologies, Warwick, R.I.) connected to a computer (Windaq data acquisition software DATAQ Instruments Inc., Akron, Ohio). Data were averaged for 24 h and analyzed for 12-h periods during the day (7:00 AM-7:00 PM) and night (7:00 PM-7:00 AM). Voiding frequency, total voided volume, and volume per void were analyzed. […]

[4] = test system: aged rats; assay: Voiding analysis in metabolic cages, aged rats; format: in vivo, rat; conditions: aged rats; intravesical 5 μM forodesine plus 10 μM DEA-NONOate, 3 weeks of treatment; vs aged control rats; remark: listed apart in the source

SMILES: Nc1nc2c(nc(N)n2[C@@H]2O[C@H](CO)[C@@H](O)[C@H]2O)c(=O)[nH]1 [8-aminoguanosine, 8-Aminoguanosine, reference compound]
- development of deoxycorticosterone/salt-induced hypertension [1]: attenuate
- diuresis [2]: induce
- glucosuria [2]: induce
- natriuresis [2]: induce
- potassium excretion [2]: reduce

SMILES: O=c1[nH]cnc2c([C@@H]3N[C@H](CO)[C@@H](O)[C@H]3O)c[nH]c12 [forodesine, 7-[(2S,3S,4R,5R)-3,4-dihydroxy-5-(hydroxymethyl)pyrrolidin-2-yl]-3H,4H,5H-pyrrolo[3,2-d]pyrimidin-4-one, reference compound]
- voided volume [3]: significant improvement; also recorded: significantly attenuates
- voiding frequency [3]: significant improvement; also recorded: significantly attenuates
- inter-contraction interval [4]: significant improvement; also recorded: significantly attenuates
